Data from patent EP4623911A1, “PI4KB INHIBITORS FOR THE TREATMENT OF FATTY LIVER DISEASE” (ETH Zurich, priority 2024, dated 2025).

Tested on: mouse model of hepatic steatosis
Assay: HFD-induced hepatic steatosis (NAFLD) mouse model treated with UCB9608
Type: in vivo, mice
Experimental: Male mice were used for NAFLD induction via feeding on HFD. ROSA26-LSL-spCas9 mice were injected with AAV-U6-Cu/7 gRNAs-TBG-Cre and AAV-U6-Fbxw8 gRNAs-TBG-Cre virus pools at a dose of 3×10^11 genome copies/mouse and fed in HFD for 12 weeks and livers were harvested after 6 hours fasting. To study PI4KB in NAFLD progression, male ROSA26-LSL-spCas9 mice were fed in HFD for 12 weeks to induce fatty liver before induction of hepatocyte specific depletion of PI4KB via intravenous administration of AAV8. After another 8 weeks, mice were dissected to harvest liver after 6 hours fasting. Likewise, male C57BL/6N wild-type mice and liver specific Atgl knockout mice (AtglLKO) were challenged with HFD for 12 weeks to induce fatty liver prior to administration of UCB9608 mixed in HFD (5 mg/kg) for another 8 weeks. Then the mice were dissected to harvest tissues and sample blood after 6 hours fasting Atgl floxed mice (The Jackson Lab strain) were crossed with Albumin-Cre (The Jackson Lab strain) and Adip-CreERT2 strains to obtain Alb-Atgfl^fl/fl and AdipcreERT2-Atgl^fl/fl mice (Sitnick,M.T. et al, Diabetes 62, (2013)), which deplete ATGL protein in the liver and the adipose depots (induced after tamoxifen gavage), respectively. […]
Adipose depots, liver pieces, differentiated iBAs, HepG2, HEK293T and HEK293-AAV cell types were homogenized in RIPA buffer (50 mM Tris-HCl pH 7.4, 150 mM NaCl, 2 mM EDTA, 1.0% Triton X100, 0.5% sodium deoxycholate) with protease inhibitors (Complete, Roche) and phosphatase inhibitors (Halt phosphatase inhibitor cocktail, ThermoFisher). […] The concentration of WCE was determined by DC Protein Assay (Bio-Rad). […]
Plasma collected from mice under different conditions was used to determine levels of lipolysis and liver injury. FFA levels were measured via NEFA assay kit (Wako NEFA kit). TG levels were determined via TG assay kit (Roche Trig/GB reagent). […] The absorbance was monitored using Synergy Gen5 Platereader.
Weight of liver pieces (50-100 mg) was recorded before homogenization by 1 mL isopropanol per 50 mg tissue. […]

COc1ccc(NC(=O)N2CCN(c3nc(N)nc4c3cnn4C)[C@@H](C)C2)c(C)c1 [UCB9608]
hepatic steatosis (hepatic TG levels) (HFD 12 weeks, then UCB9608 in HFD (5 mg/kg) 8 weeks, requires ATGL in the liver): substantially attenuated
ATGL protein levels in the iBAT, gWAT and liver (UCB9608- vs DMSO-treated HFD mice): significantly greater
plasma FFA levels (wild-type mice, HFD 12 weeks, then UCB9608 in HFD (5 mg/kg) 8 weeks, vs DMSO): significantly increased
